Measurements as given in US6734337B2, “Acetyl-coenzyme A carboxylase 2 as a target in the regulation of fat burning, fat accumulation, energy homeostasis and insulin action” (Research Development Foundation, priority 2000, dated 2004).

Columns and labels:
ACC = conditions: mice treated with fatty acid synthase inhibitors; cited from earlier work
[1] = tested on: soleus muscles of Acc2-/- mutant mice; test: [3H]palmitate oxidation in isolated soleus muscle of Acc2-/- mutant mice; assay type: cell-based, mouse; conditions: 30 min, 37° C.
Protocol: Where indicated, insulin (10 nM) or isoproterenol (3 mM) was added, and the vials were incubated at 37° C. under a humidified O2/CO2 (95/5%) atmosphere for 30 min. At the end of the incubation period, the [^3H]2O was separated from the labeled substrate and counted. To provide further evidence for the role of ACC2-synthesized malonyl-CoA as the regulator of fatty acid oxidation, fatty acid oxidation was investigated in the mouse soleus muscle, a […] muscle tissue responsive to hormonal regulation ([…]., Gamble, J., Patel, A., Kemp, […]., and Ruderman, W. B., J Biol Chem., 272:13255-13261 1997; Alam, N., and E. D. Saggerson. Biochem J., 334:233-41, 1998; […]., and […]. Proc Natl Acad Sci. USA 92, 4011-4015, 1995; […]., and […] Biol Chem. 272, 10669-10677, 1997; -Ha, J., J. K. Lee, […], and K.-H. Him. Proc Natl Acad Sci USA. 93:11466-11470, 1996; Rasmussen, B. B. and Wolfe, R. R., Ann. Rev. Natr. 19:463, 1999; and, Bressler, R. and […] Biol Chem. 236:1643-1651, 1961). […] Insulin is known to activate both ACC1 and ACC2 and, thereby, to induce fatty acid synthesis and inhibit fatty acid oxidation, respectively. […] Faseb J. 3:2250-2256, 1989; Thampy, K. G., and […]. Biol. Chem. 263, 6454-6458, 1988; […]., and […]. Biol. Chem. 265, 6330-6338, 1990; Mohamed, A. H., W. Y. Huang, W. Huang, K. V. Venkatachalam, and […] Biol Chem. 269:6859-6865. 1994; and, Hardie, D. G. Prog Lipid Res. 28:117-146, 1989). The role of ACC2 in the regulation of mitochondrial oxidation of fatty acids was further confirmed by using isoproterenol, an analog of glucagon, which produces effects opposite of those of insulin. Adding isoproterenol to wild-type soleus muscle increased palmitate oxidation by 50% (FIG. 4), raising it to nearly the same level as that found in the mutant muscle cells. […] This additional increase may be due to factors independent of malonyl-CoA ([…]. Lopez-[…]. Bai, X. Luo, and M. E. Pape. Faseb J. 3:2250-2256, 1989).

[2] = tested on: soleus muscles of wild-type (Acc2+/+) mice; test: [3H]palmitate oxidation in isolated soleus muscle of wild-type mice; assay type: cell-based, mouse; conditions: isoproterenol 3 mM, 30 min, 37° C.
Protocol: Where indicated, insulin (10 nM) or isoproterenol (3 mM) was added, and the vials were incubated at 37° C. under a humidified O2/CO2 (95/5%) atmosphere for 30 min. At the end of the incubation period, the [^3H]2O was separated from the labeled substrate and counted. To provide further evidence for the role of ACC2-synthesized malonyl-CoA as the regulator of fatty acid oxidation, fatty acid oxidation was investigated in the mouse soleus muscle, a […] muscle tissue responsive to hormonal regulation ([…]., Gamble, J., Patel, A., Kemp, […]., and Ruderman, W. B., J Biol Chem., 272:13255-13261 1997; Alam, N., and E. D. Saggerson. Biochem J., 334:233-41, 1998; […]., and […]. Proc Natl Acad Sci. USA 92, 4011-4015, 1995; […]., and […] Biol Chem. 272, 10669-10677, 1997; -Ha, J., J. K. Lee, […], and K.-H. Him. Proc Natl Acad Sci USA. 93:11466-11470, 1996; Rasmussen, B. B. and Wolfe, R. R., Ann. Rev. Natr. 19:463, 1999; and, Bressler, R. and […] Biol Chem. 236:1643-1651, 1961). […] Insulin is known to activate both ACC1 and ACC2 and, thereby, to induce fatty acid synthesis and inhibit fatty acid oxidation, respectively. […] Faseb J. 3:2250-2256, 1989; Thampy, K. G., and […]. Biol. Chem. 263, 6454-6458, 1988; […]., and […]. Biol. Chem. 265, 6330-6338, 1990; Mohamed, A. H., W. Y. Huang, W. Huang, K. V. Venkatachalam, and […] Biol Chem. 269:6859-6865. […]

Compound: CCCCCCCCCCCCCCOc1ccc(C(=O)O)o1 [5-(tetradeculoxy)-2 furoic acid]
- effect on food uptake (ACC): increases food uptake

Compound: insulin
- effect on fatty acid oxidation ([1]; insulin 10 nM): did not affect

Compound: CC(C)NCC(O)c1ccc(O)c(O)c1 (centres unmarked) [isoproterenol]
- increase of fatty acid (palmitate) oxidation [2]: 50%
- effect on fatty acid oxidation ([1]; isoproterenol 3 mM): further increased
- effect on fatty acid oxidation ([1]; isoproterenol 3 mM, listed as Isoproterenol): little effect
